Results: patent US9156783B2, “Compounds for treating proliferative disorders” (Synta Pharmaceuticals Corp., priority 2006, dated 2015)

Test system: inducible human Hsp70
Experiment: Hsp70 RNA induction by quantitative PCR analysis in Ramos B cells
Format: cell-based
Conditions: 500 nM compound, 6 hours; for % induction relative to Compound B: Compound B induction set to 100%; for fold induction at 0.5 µM: Homo sapiens, read-out: fold induction over DMSO
Description: The ability of the compounds of the invention to induce Hsp70 RNA induction by quantitative PCR analysis was examined. Ramos B cells were treated with 500 nM each compound for 6 hours and the RNA was isolated from the cells. Quantitative PCR was performed as described below:
Details for Quantitative PCR are as follows:
500 ng of RNA from each sample was used for cDNA synthesis using iScript cDNA Synthesis Kit (Biorad, Cat #170-8891). 1 ul of cDNA mixture was used with the iQ SYBR Green Supermix (Biorad, Cat#170-8882) to perform quantitative PCR in an iCycler machine (Biorad) using standard protocols. QPCR for each sample/time point was performed in duplicate. The following primers for inducible human Hsp70 and gapdh were used: […]
Ct values were obtained from the iCycler program and used in an equation (2^−ΔΔCT) for determining the amount of target relative to gapdh expression. This compares the relative expression of Hsp70 to the corresponding levels of gapdh in each sample. Duplicate wells were averaged. The amount of N-Malonyl-bis(N′-methyl-N′thiobenzoylhydrazide) (Compound B) induction of Hsp70 was set to 100% and the percent of induction of Hsp70 by the compounds of the invention was determined relative to 100%.

SMILES	% induction relative to Compound B	fold induction at 0.5 µM
COP(=O)(CP(=O)(NN(C)C(=O)c1ccccc1)OC)NN(C)C(=O)c1ccccc1 (stereo not shown) [Compound 33]	0.14%	0.35
COP(=O)(CP(=O)(NN(C)C(=S)c1ccccc1)OC)NN(C)C(=S)c1ccccc1 (stereo not shown) [Compound 30, Dimethyl N,N′-methylenebis(N′-methyl-N′(phenylcarbonothioyl)-phosphonohydrazidate)]	0.34%	0.85
CNN=C(C(=O)NN(C)C(=S)c1ccccc1)C(=O)NN(C)C(=S)c1ccccc1 [Compound 71, N′1,N′3-dimethyl-2-(2-methylhydrazono)-N′1,N′3-di(phenylcarbonothioyl)-malonohydrazide]	17.59%	46.9
CN(NC(=O)CC(=O)NN(C)/C(=N/S(C)(=O)=O)c1ccccc1)/C(=N/S(C)(=O)=O)c1ccccc1 [Compound 67, N′1,N′3-bis(methanesulfonimino(phenyl)methyl)-N′1,N′3-dimethylmalonohydrazide]	0.75%	1.87
CN(NC(=O)CS(=O)(=O)NN(C)C(=S)c1ccccc1)C(=S)c1ccccc1 [Compound 68, N′-Methyl-2-(2-methyl-2-(phenylcarbonothioyl)hydrazinyl)-2-oxo-N′-(phenylcarbonothioyl)ethanesulfonohydrazide]	11.78%	29.3
